Literature values, collected in US20080107726A1, “COMPOSITIONS COMPRISING BETA-ADRENERGIC RECEPTOR ANTAGONISTS AND DIURETICS” (priority 2006, published 2008).
Structures can show the parent of a compound that is named as a salt. Where two headings read alike, the source gives them in different places.

Solubility (in dichloromethane and 2-propanol): slightly soluble
Solubility (in ethanol): sparingly soluble
Solubility (in ethyl acetate, acetone, diethylether and heptane): practically insoluble
Solubility (in methanol): soluble
Solubility (in water): freely soluble
SMILES: COCCc1ccc(OCC(O)CNC(C)C)cc1 (racemic) [Metoprolol succinate, (±)-1-(isopropylamino)-3-[p-(2-methoxyethyl)phenoxy]-2-propanol succinate (2:1) (salt)]
